Experiment [1] has as its target human SOS1 (nucleotide exchange of K-Ras^G12C) (Homo sapiens, UniProt Q07889). Nature of the experiment: Biochemical assay 2: K-Ras^G12C activation assay by hSOS1 at high GTP concentration (HTRF). To be noted: high GTP; read-out: Assay 2 (KRAS-Activation by SOS high GTP) activity expressed as IC50. A general note: In TR-FRET formats the signal depends on donor and acceptor labels being close together.

Experiment [2] concerns the target Epidermal Growth Factor Receptor (EGFR) (Homo sapiens (Human), UniProt P00533). In words: EGFR kinase assay (TR-FRET). Type of experiment: biochemical. Conditions: values given in μM; read-out: EGFR kinase inhibition IC50. A digest of the protocol: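 Read-out is the 665/620 nm HTRF ratio, from a Tb-cryptate anti-phosphotyrosine antibody and streptavidin-XL665 bound to phosphorylated biotin-peptide substrate. The enzyme, A431-derived EGFR (~3 U/ml), was given 15 min compound pre-binding at 22° C in Hepes pH 7.0 with Mg2+/Mn2+ before reaction.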

Counter-ions that a name gives are not always drawn.

Epidermal Growth Factor Receptor (EGFR), sequence (P00533 25-1210): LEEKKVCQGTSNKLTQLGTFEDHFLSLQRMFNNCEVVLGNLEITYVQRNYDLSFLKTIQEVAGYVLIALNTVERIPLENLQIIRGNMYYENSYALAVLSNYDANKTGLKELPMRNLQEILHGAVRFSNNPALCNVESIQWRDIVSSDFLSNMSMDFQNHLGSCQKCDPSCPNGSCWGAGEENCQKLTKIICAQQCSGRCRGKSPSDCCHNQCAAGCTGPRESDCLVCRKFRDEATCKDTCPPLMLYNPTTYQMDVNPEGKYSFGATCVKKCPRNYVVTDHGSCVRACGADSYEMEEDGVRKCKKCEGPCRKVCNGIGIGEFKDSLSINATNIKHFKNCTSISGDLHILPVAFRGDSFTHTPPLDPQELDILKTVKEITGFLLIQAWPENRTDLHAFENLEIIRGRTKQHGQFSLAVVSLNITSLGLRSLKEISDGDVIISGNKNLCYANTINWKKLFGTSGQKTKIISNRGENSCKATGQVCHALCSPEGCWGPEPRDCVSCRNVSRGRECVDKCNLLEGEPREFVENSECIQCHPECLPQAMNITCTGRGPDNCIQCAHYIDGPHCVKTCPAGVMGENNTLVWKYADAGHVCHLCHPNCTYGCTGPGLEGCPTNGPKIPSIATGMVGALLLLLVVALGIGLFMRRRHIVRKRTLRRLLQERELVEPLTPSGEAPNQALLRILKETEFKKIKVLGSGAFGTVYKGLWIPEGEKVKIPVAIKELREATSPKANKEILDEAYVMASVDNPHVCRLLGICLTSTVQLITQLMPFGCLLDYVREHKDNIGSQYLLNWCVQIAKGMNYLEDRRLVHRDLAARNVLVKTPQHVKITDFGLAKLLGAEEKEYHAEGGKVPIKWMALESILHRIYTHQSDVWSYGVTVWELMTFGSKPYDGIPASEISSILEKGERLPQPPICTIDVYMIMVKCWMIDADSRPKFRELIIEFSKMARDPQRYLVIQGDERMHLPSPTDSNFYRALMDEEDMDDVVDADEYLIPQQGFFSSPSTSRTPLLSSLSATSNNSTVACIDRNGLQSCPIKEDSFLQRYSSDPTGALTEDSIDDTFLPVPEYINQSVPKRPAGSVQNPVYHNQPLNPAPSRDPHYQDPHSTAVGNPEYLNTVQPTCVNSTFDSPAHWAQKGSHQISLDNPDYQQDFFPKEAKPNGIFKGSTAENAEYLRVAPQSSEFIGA

Consider `COc1cc2nc(C)nc(NC(C)c3ccc(-c4cccc5sc(C(N)=O)c(N)c45)s3)c2cc1OC` (stereo not drawn) [Example 278, 3-amino-4-(5-{1-[(6,7-dimethoxy-2-methylquinazolin-4-yl)amino]ethyl}thiophen-2-yl)-1-benzothiophene-2-carboxamide], for which the concentration for half-maximal inhibition (IC50) (in general, the concentration that inhibits the measured activity by half) in experiment [1] is 3710 nM; in experiment [2], greater than 20 µM.

Take `COC(=O)CNCc1ccccc1-c1ccc(C(C)Nc2nc(C)nc3cc(OC)c(OC)cc23)s1` (stereo not drawn) [Example 281, methyl N-[2-(5-{1-[(6,7-dimethoxy-2-methylquinazolin-4-yl)amino]ethyl}thiophen-2-yl)benzyl]glycinate]: the IC50 in experiment [1] was 447 nM; in experiment [2], greater than 20 µM.

Take `COc1cc2nc(C)nc(NC(C)c3ccc(-c4ccccc4CNCC(=O)N4CCOCC4)s3)c2cc1OC` (stereo not drawn) [Example 285, 2-{[2-(5-{1-[(6,7-dimethoxy-2-methylquinazolin-4-yl)amino]ethyl}thiophen-2-yl)benzyl]amino}-1-(morpholin-4-yl)ethanone]: the IC50 in experiment [1] was 158 nM; in experiment [2], greater than 20 µM.

For the molecule `COc1cc2nc(C)nc(NC(C)c3ccc(-c4cc(C)n(C)c4C#N)s3)c2cc1OC` (stereo not drawn) [Example 286, 3-(5-{1-[(6,7-dimethoxy-2-methylquinazolin-4-yl)amino]ethyl}thiophen-2-yl)-1,5-dimethyl-1H-pyrrole-2-carbonitrile], the results for the IC50 in experiment [1] and in experiment [2] were 17400 nM and greater than 20 µM, respectively.

Take `COc1cc2nc(C)nc(NC(C)c3ccc(-c4cscc4C#N)s3)c2cc1OC` (stereo not drawn) [Example 287, 5-{1-[(6,7-dimethoxy-2-methylquinazolin-4-yl)amino]ethyl}-2,3′-bithiophene-4′-carbonitrile]: the IC50 was 1860 nM in experiment [1] and greater than 20 µM in experiment [2].

For the molecule `CCN(CC)Cc1ccccc1-c1ccc(C(C)Nc2nc(C)nc3cc(OC)c(OC)cc23)s1` (stereo not drawn) [Example 288, N-[1-(5-{2-[(diethylamino)methyl]phenyl}thiophen-2-yl)ethyl]-6,7-dimethoxy-2-methylquinazolin-4-amine], the 50% inhibitory concentration (IC50) is 140 nM in experiment [1] and greater than 20 µM in experiment [2].

`COc1cc2nc(C)nc(NC(C)c3ccc(-c4ccccc4CN4CCCC(C(N)=O)C4)s3)c2cc1OC` (stereo not drawn) [Example 290, 1-[2-(5-{1-[(6,7-dimethoxy-2-methylquinazolin-4-yl)amino]ethyl}thiophen-2-yl)benzyl]piperidine-3-carboxamide]: the half-inhibitory concentration (IC50) in experiment [1] was 116 nM; in experiment [2], greater than 20 µM.

As for `COc1cc2nc(C)nc(NC(C)c3ccc(-c4ccccc4CN(C)CC(F)F)s3)c2cc1OC` (stereo not drawn) [Example 291, N-{1-[5-(2-{[(2,2-difluoroethyl)(methyl)amino]methyl}phenyl)thiophen-2-yl]ethyl}-6,7-dimethoxy-2-methylquinazolin-4-amine], the IC50 in experiment [1] is 1320 nM; in experiment [2], greater than 20 µM.

With `COc1cc2nc(C)nc(NC(C)c3ccc(-c4cc(Cl)ccc4CN)s3)c2cc1OC` (stereo not drawn) [Example 292, N-[1-{5-[2-(aminomethyl)-5-chlorophenyl]thiophen-2-yl}ethyl]-6,7-dimethoxy-2-methylquinazolin-4-amine], the figures for the IC50 in experiment [1] and in experiment [2] were 38.7 nM and greater than 20 µM, respectively.

In the case of `COc1cc2nc(C)nc(NC(C)c3ccc(-c4ccc(F)cc4CNC(=O)c4ncc[nH]4)s3)c2cc1OC` (stereo not drawn) [Example 293, N-[2-(5-{1-[(6,7-dimethoxy-2-methylquinazolin-4-yl)amino]ethyl}thiophen-2-yl)-5-fluorobenzyl]-1H-imidazole-2-carboxamide], the IC50 in experiment [1] was 3920 nM; in experiment [2], greater than 20 µM.

On to `COc1cc2nc(C)nc(NC(C)c3ccc(-c4ccc(F)cc4CNC(=O)c4cnc[nH]4)s3)c2cc1OC` (stereo not drawn) [Example 294, N-[2-(5-{1-[(6,7-dimethoxy-2-methylquinazolin-4-yl)amino]ethyl}thiophen-2-yl)-5-fluorobenzyl]-1H-imidazole-5-carboxamide], for which the IC50 in experiment [1] is 3930 nM; in experiment [2], greater than 20 µM.

With `COc1cc2nc(C)nc(NC(C)c3ccc(-c4ccc(F)cc4CNC(=O)CNCC(F)(F)F)s3)c2cc1OC` (stereo not drawn) [Example 295, N-[2-(5-{1-[(6,7-dimethoxy-2-methylquinazolin-4-yl)amino]ethyl}thiophen-2-yl)-5-fluorobenzyl]-N^2-(2,2,2-trifluoroethyl)glycinamide], the IC50 in experiment [1] was 1470 nM; in experiment [2], greater than 20 µM.

As for `COc1cc2nc(C)nc(NC(C)c3ccc(-c4ccccc4CNCCO)s3)c2cc1OC` (stereo not drawn) [Example 297, 2-{[2-(5-{1-[(6,7-dimethoxy-2-methylquinazolin-4-yl)amino]ethyl}thiophen-2-yl)benzyl]amino}ethanol], the IC50 in experiment [1] was 57.8 nM; in experiment [2], greater than 20 µM.

With `COc1cc2nc(C)nc(NC(C)c3ccc(-c4ccccc4CN(C)CCO)s3)c2cc1OC` (stereo not drawn) [Example 298, 2-{[2-(5-{1-[(6,7-dimethoxy-2-methylquinazolin-4-yl)amino]ethyl}thiophen-2-yl)benzyl](methyl)amino}ethanol], the values for the IC50 in experiment [1] and in experiment [2] were 49.3 nM and greater than 20 µM, respectively.

As for `COc1cc2nc(C)nc(NC(C)c3ccc(-c4ccc(F)cc4CNC(=O)CNc4ccccc4)s3)c2cc1OC` (stereo not drawn) [Example 299, N-[2-(5-{1-[(6,7-dimethoxy-2-methylquinazolin-4-yl)amino]ethyl}thiophen-2-yl)-5-fluorobenzyl]-N^2-phenylglycinamide], the figures for the half-inhibitory concentration (IC50) in experiment [1] and in experiment [2] were 1230 nM and greater than 20 µM, respectively.

Turning to `COc1cc2nc(C)nc(NC(C)c3ccc(-c4ccccc4CNCC(F)(F)F)s3)c2cc1OC` (stereo not drawn) [Example 300, 6,7-di methoxy-2-methyl-N-{1-[5-(2-{[(2,2,2-trifluoroethyl)amino]methyl}phenyl)thiophen-2-yl]ethyl}quinazolin-4-amine], the results for the IC50 in experiment [1] and in experiment [2] were 3070 nM and greater than 20 µM, respectively.

Turning to `COc1cc2nc(C)nc(NC(C)c3ccc(-c4ccccc4CNc4ccccn4)s3)c2cc1OC` (stereo not drawn) [Example 301, 6,7-di methoxy-2-methyl-N-[1-(5-{2-[(pyridin-2-ylamino)methyl]phenyl}thiophen-2-yl)ethyl]quinazolin-4-amine], the half-maximal inhibitory concentration (IC50) in experiment [1] was 931 nM; in experiment [2] it was greater than 20 µM.

For `COc1cc2nc(C)nc(NC(C)c3ccc(-c4ccccc4CNc4cc[nH]n4)s3)c2cc1OC` (stereo not drawn) [Example 302, 6,7-dimethoxy-2-methyl-N-[1-(5-{2-[(1H-pyrazol-3-ylamino)methyl]phenyl}thiophen-2-yl)ethyl]quinazolin-4-amine], the IC50 was 1260 nM in experiment [1] and greater than 20 µM in experiment [2].

Turning to `COc1cc2nc(C)nc(NC(C)c3ccc(-c4ccccc4CNCC(=O)N4CCc5ccccc5C4)s3)c2cc1OC` (stereo not drawn) [Example 303, 1-(3,4-dihydroisoquinolin-2(1H)-yl)-2-{[2-(5-{1-[(6,7-dimethoxy-2-methylquinazolin-4-yl)amino]ethyl}thiophen-2-yl)benzyl]amino}ethanone], the IC50 in experiment [1] was 840 nM; in experiment [2], greater than 20 µM.

As to `COc1cc2nc(C)nc(NC(C)c3ccc(-c4ccc(F)cc4CNCc4nccn4C)s3)c2cc1OC` (stereo not drawn) [Example 304, N-[1-{5-[4-fluoro-2-({[(1-methyl-1H-imidazol-2-yl)methyl]amino}methyl)phenyl]thiophen-2-yl}ethyl]-6,7-dimethoxy-2-methylquinazolin-4-amine], the half-inhibitory concentration (IC50) in experiment [1] was 469 nM; in experiment [2] it was greater than 20 µM.

`COc1cc2nc(C)nc(NC(C)c3ccc(-c4ccccc4CN4CCNCC4)s3)c2cc1OC` (stereo not drawn) [Example 305, 6,7-dimethoxy-2-methyl-N-[1-{5-[2-(piperazin-1-ylmethyl)phenyl]thiophen-2-yl}ethyl]quinazolin-4-amine hydrochloride]: the values for the half-maximal inhibitory concentration (IC50) in experiment [1] and in experiment [2] were 55.2 nM and greater than 20 µM, respectively.

With `COc1cc2nc(C)nc(NC(C)c3ccc(-c4ccc(F)cc4CNC(C)=O)s3)c2cc1OC` (stereo not drawn) [Example 307, N-[2-(5-{1-[(6,7-dimethoxy-2-methylquinazolin-4-yl)amino]ethyl}thiophen-2-yl)-5-fluorobenzyl]acetamide], the results for the IC50 in experiment [1] and in experiment [2] were 593 nM and greater than 20 µM, respectively.

On to `COc1cc2nc(C)nc(NC(C)c3ccc(-c4ccccc4CN4CCN(C)CC4)s3)c2cc1OC` (stereo not drawn) [Example 308, 6,7-dimethoxy-2-methyl-N-[1-(5-{2-[(4-methylpiperazin-1-yl)methyl]phenyl}thiophen-2-yl)ethyl]quinazolin-4-amine], for which the 50% inhibitory concentration (IC50) in experiment [1] was 229 nM; in experiment [2], greater than 20 µM.

`COc1cc2nc(C)nc(NC(C)c3ccc(-c4ccccc4CN[C@H]4CCN(C)C4=O)s3)c2cc1OC` (stereo partly drawn) [Example 309, (3S)-{[2-(5-{1-[(6,7-dimethoxy-2-methylquinazolin-4-yl)amino]ethyl}thiophen-2-yl)benzyl]amino}-1-methylpyrrolidin-2-one]: the concentration for half-maximal inhibition (IC50) was 690 nM in experiment [1] and greater than 20 µM in experiment [2].

As for `COc1cc2nc(C)nc(NC(C)c3ccc(-c4ccc(F)cc4CNC(=O)c4cc[nH]n4)s3)c2cc1OC` (stereo not drawn) [Example 310, N-[2-(5-{1-[(6,7-dimethoxy-2-methylquinazolin-4-yl)amino]ethyl}thiophen-2-yl)-5-fluorobenzyl]-1H-pyrazole-3-carboxamide], the IC50 is 1340 nM in experiment [1] and greater than 20 µM in experiment [2].

With `COc1cc2nc(C)nc(NC(C)c3ccc(-c4ccccc4CN4CCOCC4)s3)c2cc1OC` (stereo not drawn) [Example 311, 6,7-dimethoxy-2-methyl-N-[1-{5-[2-(morpholin-4-ylmethyl)phenyl]thiophen-2-yl}ethyl]quinazolin-4-amine], the IC50 is 513 nM in experiment [1] and greater than 20 µM in experiment [2].

`COc1cc2nc(C)nc(NC(C)c3ccc(-c4ccccc4CN4CC(O)C4)s3)c2cc1OC` (stereo not drawn) [Example 312, 1-[2-(5-{1-[(6,7-dimethoxy-2-methylquinazolin-4-yl)amino]ethyl}thiophen-2-yl)benzyl]azetidin-3-ol]: the results for the IC50 in experiment [1] and in experiment [2] were 66.5 nM and greater than 20 µM, respectively.
